# Experimental data published in patent US20040010042A1, “Method for preventing decrease of breast milk amount in mammals” (Ajinomoto Co., Inc., priority 2002, published 2004).
# Tested on: lactating Holstein cows in sub-clinical ketosis
# Assay: Change of daily milk production after a single intravenous injection in lactating Holstein cows with sub-clinical ketosis
# Assay type: in vivo
# From the text: Ten lactating Holstein cows in the immediate post-partum period of which milk production was 10-15% decreased in comparison with that of one week before the beginning of test due to sub-clinical ketosis were used. All cows were supplied with a complete feed for lactating cows composed of corn silage and concentrate containing grains, oil meals, animal proteins and vitamins/minerals. On the first day in the test, a solution containing 29 g of L-glutamine dissolved in 1 liter of distilled water for injection was injected into the cows through the cervical vein. The cows were then milked twice a day for one month, and the milk amount was measured. Ten lactating Holstein cows in sub-clinical ketosis were selected as negative controls according to the same criterion as in Example. On the first day in the test, 1 liter of saline was injected through the cervical vein as the negative control. On the other hand, nine lactating Holstein cows selected according to the same criterion as described above were used. On the first day in the test, 1 liter of a 25% dextrose solution was injected through the cervical vein as the positive control. Both the negative and positive controls were then supplied with the same complete feed as used in Example. The cows were then milked twice a day for one month, and the milk amount was measured. […] The X-axis indicates days after administration, and the Y-axis indicates the increment of the milk amount from that on the first day of the test. […] The increase of the milk amount was about 12 kg per day at maximum. […] Thus, the present invention can provide a novel method which is inexpensive and safe for preventing decrease of milk amount in mammals.
structure (smiles),measurement,setting,value
"NC(=O)CC[C@H](N)C(=O)O [glutamine, L-glutamine]","milk amount increase on the average, from that on the first day of the test","single injection through the cervical vein on the first day (29 g L-glutamine in 1 liter, or 1 liter of 25% dextrose solution), milked twice a day for one month",7.6 kg per day
same,"increase of the milk amount at maximum, from that on the first day of the test","single injection through the cervical vein on the first day (29 g L-glutamine in 1 liter, or 1 liter of 25% dextrose solution), milked twice a day for one month, FIG. 1",about 12 kg per day
same,course of the change of the milk amount after administration,"single injection through the cervical vein on the first day, followed for one month, FIG. 1","increased immediately after administration, and this tendency lasted even one month after administration"
